In patent publication US20240285785A1, “TARGETING SORTILIN” (priority 2022, published 2024) one finds half-life data, which are given here for 15 molecules.

One series can be described thus: Murine serum stability assay. Type of series: in vitro ADME, mouse (CD-1). The conditions noted are these: male, CD-1, mouse, mouse serum, male CD-1 mouse serum, 37° C.; read-out: Murine serum stability assay, T1/2. Here is the method:
Serum was drawn from male CD-1 mice by Pharmidex. Lyophilized peptides were solubilized in DMSO and then further diluted into male mouse (CD-1) serum at 37° C. in duplicates. The reaction was incubated at 37° C. and samples extracted at 6 time points: 0, 0.16, 0.5, 1, 3, and 6 hrs. Acetonitrile (ACN) with internal standard (tolbutamide) was added to stop the incubation. Samples were centrifuged, and the supernatant was analyzed by HPLC-MS/MS for the parent compound.
Regarding `CC(C)CC[C@H](NC(=O)[C@H](CCC(N)=O)NC(=O)[C@H](CCCNC(=N)N)NC(=O)[C@H](CC(C)C)NC(=O)[C@H](C)NC(=O)[C@@H]1CCCN1C(=O)[C@H](CC(=O)O)NC(=O)[C@H](CCCNC(=N)N)NC(=O)[C@H](CC(C)C)NC(=O)[C@@H]1CCCN1C(=O)[C@H](C)NC(=O)[C@H](CC(=O)O)NC(=O)[C@H](Cc1c[nH]c2ccccc12)NC(=O)[C@H](CCCNC(=N)N)NC(=O)[C@@H]1CCCN1C(=O)[C@H](C)N)C(=O)N[C@@H](CC(C)(C)C)C(=O)O` [Arb-SAR-P17], the half-life is 12.8 min.

Regarding `CCCC[C@H](NC(=O)[C@H](CCC(N)=O)NC(=O)[C@H](CCCNC(=N)N)NC(=O)[C@H](CC(C)C)NC(=O)[C@H](C)NC(=O)[C@@H]1CCCN1C(=O)[C@H](CC(=O)O)NC(=O)[C@H](CCCNC(=N)N)NC(=O)[C@H](CC(C)C)NC(=O)[C@@H]1CCCN1C(=O)[C@H](C)NC(=O)[C@H](CC(=O)O)NC(=O)[C@H](Cc1c[nH]c2ccccc12)NC(=O)[C@H](CCCNC(=N)N)NC(=O)[C@@H]1CCCN1C(=O)[C@H](C)N)C(=O)N[C@@H](CC(C)(C)C)C(=O)O` [Arb-SAR-P19], the half-life was 11.8 min.

Regarding `CC(C)C[C@H](NC(=O)[C@H](CC(C)C)NC(=O)[C@H](CCO)NC(=O)[C@H](CCCNC(=N)N)NC(=O)[C@H](CC(C)C)NC(=O)[C@H](C)NC(=O)[C@@H]1CCCN1C(=O)[C@H](CC(=O)O)NC(=O)[C@H](CCCNC(=N)N)NC(=O)[C@H](CC(C)C)NC(=O)[C@@H]1CCCN1C(=O)[C@H](C)NC(=O)[C@H](CC(=O)O)NC(=O)[C@H](Cc1c[nH]c2ccccc12)NC(=O)[C@H](CCCNC(=N)N)NC(=O)[C@@H]1CCCN1C(=O)[C@H](C)N)C(=O)O` [Arb-SAR-K3], the half-life turned out to be 11.2 min.

Turning to `CC(C)CC[C@H](NC(=O)[C@H](CCC(N)=O)NC(=O)[C@H](CCCNC(=N)N)NC(=O)[C@H](CC(C)C)NC(=O)[C@H](C)NC(=O)[C@@H]1CCCN1C(=O)[C@H](CC(=O)O)NC(=O)[C@H](CCCNC(=N)N)NC(=O)[C@H](CC(C)C)NC(=O)[C@@H]1CCCN1C(=O)[C@H](C)NC(=O)[C@H](CC(=O)O)NC(=O)[C@H](Cc1c[nH]c2ccccc12)NC(=O)[C@H](CCCNC(=N)N)NC(=O)[C@@H]1CCCN1C(=O)[C@H](C)N)C(=O)N[C@@H](CC1CCC1)C(=O)O` [Arb-SAR-Q09], the half-life was found to be 11.4 min. Turning to `CC(C)CC[C@H](NC(=O)[C@H](CCCNC(=N)N)NC(=O)[C@H](CC(C)C)NC(=O)[C@H](C)NC(=O)[C@@H]1CCCN1C(=O)[C@H](CC(=O)O)NC(=O)[C@H](CCCNC(=N)N)NC(=O)[C@H](CC(C)C)NC(=O)[C@@H]1CCCN1C(=O)[C@H](C)NC(=O)[C@H](CC(=O)O)NC(=O)[C@H](Cc1c[nH]c2ccccc12)NC(=O)[C@H](CCCNC(=N)N)NC(=O)[C@@H]1CCCN1C(=O)[C@H](C)N)C(=O)N[C@@H](CC(C)C)C(=O)N[C@@H](CC(C)C)C(=O)O` [Arb-SAR-K01], the half-life came to 13.8 min. On the same count and under the same terms, the figure for `CC(C)C[C@H](NC(=O)[C@H](CC(C)(C)C)NC(=O)[C@H](CCC(N)=O)NC(=O)[C@H](CCCNC(=N)N)NC(=O)[C@H](CC(C)C)NC(=O)[C@H](C)NC(=O)[C@@H]1CCCN1C(=O)[C@H](CC(=O)O)NC(=O)[C@H](CCCNC(=N)N)NC(=O)[C@H](CC(C)C)NC(=O)[C@@H]1CCCN1C(=O)[C@H](C)NC(=O)[C@H](CC(=O)O)NC(=O)[C@H](Cc1c[nH]c2ccccc12)NC(=O)[C@H](CCCNC(=N)N)NC(=O)[C@@H]1CCCN1C(=O)[C@H](C)N)C(=O)O` [Arb-SAR-J21] is 11 min; for `CCCC[C@@H]1NC(=O)[C@@H](NC(=O)[C@H](CCC(N)=O)NC(=O)[C@H](C)NC(C)=O)CSSC[C@@H](C(=O)N[C@@H](CCCNC(=N)N)C(=O)N[C@@H](CCC(N)=O)C(=O)N[C@H](C(=O)N[C@@H](CC(C)(C)C)C(=O)O)C(C)(C)C)NC(=O)[C@H](C)NC(=O)[C@H](CCCNC(=N)N)NC(=O)[C@H](CC(N)=O)NC(=O)[C@H](CCCNC(=N)N)NC(=O)CNC1=O` [Arb_cyclic_C5] it is 46.1 min; for `CC(=O)N[C@@H](CCC(=O)O)C(=O)N[C@@H](Cc1c[nH]c2ccccc12)C(=O)N[C@H]1CSSC[C@@H](C(=O)N[C@@H](CCCNC(=N)N)C(=O)N[C@@H](CCC(N)=O)C(=O)N[C@H](C(=O)N[C@@H](CC(C)(C)C)C(=O)O)C(C)(C)C)NC(=O)[C@H]([C@@H](C)O)NC(=O)[C@@H]2CCCN2C(=O)[C@H](Cc2c[nH]cn2)NC(=O)[C@H](CC(N)=O)NC(=O)[C@H](Cc2c[nH]cn2)NC(=O)[C@H](CC(C)C)NC(=O)CNC1=O` [Arb_cyclic_F3] it is 173 min.

Regarding `CCCC[C@H](NC(=O)[C@@H]1CSSC[C@H](NC(=O)[C@H](Cc2c[nH]cn2)NC(=O)[C@H](Cc2ccccc2)NC(=O)[C@H](CC(N)=O)NC(=O)[C@H](CCCNC(=N)N)NC(C)=O)C(=O)N[C@@H](CCCNC(=N)N)C(=O)N[C@@H](C)C(=O)N[C@@H](CCC(N)=O)C(=O)N1)C(=O)N[C@@H](CCCNC(=N)N)C(=O)N[C@@H](CCC(N)=O)C(=O)N[C@H](C(=O)N[C@@H](CC(C)(C)C)C(=O)O)C(C)(C)C` [Arb_cyclic_D21], the half-life amounted to 13.5 min. As for `CC(C)C[C@H](NC(=O)[C@H](C)NC(=O)[C@@H]1CCCN1C(=O)[C@H](CC(=O)O)NC(=O)[C@H](CCCNC(=N)N)NC(=O)[C@H](CC(C)C)NC(=O)[C@@H]1CCCN1C(=O)[C@H](C)NC(=O)[C@H](CC(=O)O)NC(=O)[C@H](Cc1c[nH]c2ccccc12)NC(=O)[C@H](CCCNC(=N)N)NC(=O)[C@@H]1CCCN1C(=O)[C@H](C)N)C(=O)N[C@@H](CCCNC(=N)N)C(=O)N[C@@H](CCC(N)=O)C(=O)N[C@@H](CC1CC1)C(=O)N[C@@H](CC(C)(C)C)C(=O)O` [Arb-SAR-P21], the half-life was 9.33 min. Same read-out and setting: in the case of `CCCC[C@@H]1NC(=O)[C@H](CCCNC(=N)N)NC(=O)[C@H](CCC(N)=O)NC(=O)[C@H](CC(N)=O)NC(=O)[C@H](CCC(=O)O)NC(=O)[C@@H](NC(=O)[C@H](Cc2c[nH]c3ccccc23)NC(=O)[C@H](CCCNC(=N)N)NC(C)=O)CSSC[C@@H](C(=O)N[C@@H](CCCNC(=N)N)C(=O)N[C@@H](CCC(N)=O)C(=O)N[C@H](C(=O)N[C@@H](CC(C)(C)C)C(=O)O)C(C)(C)C)NC(=O)[C@H](C(C)C)NC(=O)[C@H]([C@@H](C)O)NC1=O` [Arb_cyclic_G22, RWCENQR(Nle)TVCRQ(B13)(F02)] it was 49.2 min; in that of `CC(C)C[C@H](NC(=O)[C@H](C)NC(=O)[C@@H]1CCCN1C(=O)[C@H](CC(=O)O)NC(=O)[C@H](CCCNC(=N)N)NC(=O)[C@H](CC(C)C)NC(=O)[C@@H]1CCCN1C(=O)[C@H](C)NC(=O)[C@H](CC(=O)O)NC(=O)[C@H](Cc1c[nH]c2ccccc12)NC(=O)[C@H](CCCNC(=N)N)NC(=O)[C@@H]1CCCN1C(=O)[C@H](C)N)C(=O)N[C@@H](CCCNC(=N)N)C(=O)N[C@@H](CCC(N)=O)C(=O)N[C@@H](Cc1ccccc1)C(=O)N[C@@H](CC1CCC1)C(=O)O` [Arb-SAR-Q7], 7.73 min; in that of `CC(C)CC[C@H](NC(=O)[C@H](CCC(C)C)NC(=O)[C@H](CCC(N)=O)NC(=O)[C@H](CCCNC(=N)N)NC(=O)[C@H](CC(C)C)NC(=O)[C@H](C)NC(=O)[C@@H]1CCCN1C(=O)[C@H](CC(=O)O)NC(=O)[C@H](CCCNC(=N)N)NC(=O)[C@H](CC(C)C)NC(=O)[C@@H]1CCCN1C(=O)[C@H](C)NC(=O)[C@H](CC(=O)O)NC(=O)[C@H](Cc1c[nH]c2ccccc12)NC(=O)[C@H](CCCNC(=N)N)NC(=O)[C@@H]1CCCN1C(=O)[C@H](C)N)C(=O)O` [Arb-SAR-N22], 16.7 min.

The series is the same for the next values; noted with them: male, CD-1, mouse, serum, 37° C., read-out: Murine serum stability assay, T1/2.
With `CCCC[C@@H]1NC(=O)[C@H](CCCNC(=N)N)NC(=O)[C@H](Cc2c[nH]cn2)NC(=O)[C@H](CC(N)=O)NC(=O)[C@H](C)NC(=O)[C@@H](NC(=O)[C@@H](NC(=O)[C@H](CCCNC(=N)N)NC(C)=O)C(C)C)CSSC[C@@H](C(=O)N[C@@H](CCCNC(=N)N)C(=O)N[C@@H](CCC(N)=O)C(=O)N[C@H](C(=O)N[C@@H](CC(C)(C)C)C(=O)O)C(C)(C)C)NC(=O)[C@H]([C@@H](C)O)NC(=O)[C@H](CC(N)=O)NC1=O` [Arb_cyclic_G16, RVCANHR(Nle)NTCRQ(B13)(F02)], the half-life was found to be 11.2 min.

Consider `CC(=O)N[C@@H](CCCNC(=N)N)C(=O)N[C@H](C(=O)N[C@H]1CSSC[C@@H](C(=O)N[C@@H](CCCNC(=N)N)C(=O)N[C@@H](CCC(N)=O)C(=O)N[C@H](C(=O)N[C@@H](CC(C)(C)C)C(=O)O)C(C)(C)C)NC(=O)[C@H](C)NC(=O)[C@@H]2CCCN2C(=O)[C@H](CC(N)=O)NC(=O)[C@H](CCCNC(=N)N)NC(=O)[C@H](CC(C)C)NC(=O)[C@H](Cc2c[nH]cn2)NC(=O)[C@H](CC(N)=O)NC1=O)[C@@H](C)O` [Arb_cyclic_G15], for which the half-life was determined as 19.3 min.
